Counter-ions that a name gives are not always drawn.
System: dopaminergic neurons
Settings: enriched in treated DA neurons
Protocol: RNAs isolated from NSCs and neurons with and without drug treatments were hybridized to Illumina HumanRef-8 BeadChip (Illumina, Inc., San Diego, Calif., performed by Microarray core facility at the Burnham Institute for Medical Research). The Illumina array data were normalized by the quantile method, and then transformed log 2 ratio values for a zero mean for expression values of each gene across all samples. The statistical and bioinformatics analyses were conducted by using R and the bioconductor package (www.bioconductor.org). The gene set enrichment analysis was conducted using the GSEA software (www.broad.mit.edu/gsea).
The comparative results are then measured by a non-parametric, running sum statistic termed the enrichment score. The enrichment score significance is assessed by 1,000 permutation tests to compute the enrichment p-value.

CCCCc1oc2ccccc2c1C(=O)c1cc(I)c(OCCN(CC)CC)c(I)c1 [Amiodarone Hydrochloride]
Nes: Secondary Active Transmembrane Transporter Activity (Nom P-Val 0): 1.633
Nes: Protein Serine Threonine Kinase Activity (Nom P-Val 0.027778): 1.386
Nes: Sequence Specific Dna Binding (Nom P-Val 0.056338): 1.388
Nes: Phosphotransferase Activity Alcohol Group As Acceptor (Nom P-Val 0.059524): 1.237
Nes: Anion Transmembrane Transporter Activity (Nom P-Val 0.065574): 1.432
Nes: Lipase Activity (Nom P-Val 0.067797): 1.422
Nes: Active Transmembrane Transporter Activity (Nom P-Val 0.082192): 1.376
Nes: Receptor Signaling Protein Serine Threonine Kinase Activity (Nom P-Val 0.157895): 1.268
Nes: Protein Kinase Activity (Nom P-Val 0.176471): 1.196
Nes: Structural Constituent Of Muscle (Nom P-Val 0.207547): 1.208
Nes: Structure Specific Dna Binding (Nom P-Val 0.230769): 1.183
Nes: Receptor Signaling Protein Activity (Nom P-Val 0.236842): 1.149
Nes: Ligase Activity Forming Carbon Nitrogen Bonds (Nom P-Val 0.242857): 1.127
Nes: Small Conjugating Protein Ligase Activity (Nom P-Val 0.243243): 1.144
Nes: Ligase Activity (Nom P-Val 0.25): 1.14
Nes: Phosphoric Diester Hydrolase Activity (Nom P-Val 0.25): 1.183
Nes: Rhodopsin Like Receptor Activity (Nom P-Val 0.25): 1.144
Nes: Small Protein Conjugating Enzyme Activity (Nom P-Val 0.257576): 1.146
Nes: Deoxyribonuclease Activity (Nom P-Val 0.258621): 1.315
Nes: Acid Amino Acid Ligase Activity (Nom P-Val 0.28): 1.18
Nes: Ubiquitin Protein Ligase Activity (Nom P-Val 0.301587): 1.139
Nes: Atp Binding (Nom P-Val 0.318841): 1.077
Nes: Atpase Activity Coupled To Movement Of Substances (Nom P-Val 0.355932): 1.065
Nes: Dna Binding (Nom P-Val 0.359551): 1.034
Nes: Nuclease Activity (Nom P-Val 0.360656): 1.072
Nes: Hydrogen Ion Transmembrane Transporter Activity (Nom P-Val 0.366667): 1.078
Nes: Udp Glycosyltransferase Activity (Nom P-Val 0.366667): 1.093
Nes: Kinase Activity (Nom P-Val 0.367816): 1.036
Nes: Rna Polymerase Ii Transcription Factor Activity (Nom P-Val 0.371429): 1.042
Nes: Hydrolase Activity Acting On Acid Anhydrides Catalyzing Transmembrane Movement Of Substances (Nom P-Val 0.376812): 1.094
Nes: Double Stranded Dna Binding (Nom P-Val 0.37931): 1.072
Nes: Enzyme Activator Activity (Nom P-Val 0.382353): 1.049
Nes: Transmembrane Receptor Activity (Nom P-Val 0.382716): 1.055
Nes: Inorganic Cation Transmembrane Transporter Activity (Nom P-Val 0.40625): 1.065
Nes: Enzyme Inhibitor Activity (Nom P-Val 0.409091): 1.052
Nes: Transferase Activity Transferring Groups Other Than Amino Acyl Groups (Nom P-Val 0.415385): 1.05
Nes: Endonuclease Activity (Nom P-Val 0.419355): 0.9859
Nes: Cytokine Activity (Nom P-Val 0.421875): 1.063
Nes: Oxidoreductase Activity Acting On Ch Oh Group Of Donors (Nom P-Val 0.424242): 1.054
Nes: Oxidoreductase Activity Acting On The Ch Ch Group Of Donors (Nom P-Val 0.428571): 1.028
Nes: Primary Active Transmembrane Transporter Activity (Nom P-Val 0.430556): 1.056
Nes: Gtpase Activity (Nom P-Val 0.442857): 1.015
Nes: Transferase Activity Transferring Acyl Groups (Nom P-Val 0.451613): 1.003
Nes: Damaged Dna Binding (Nom P-Val 0.45283): 1.036
Nes: Phosphatase Regulator Activity (Nom P-Val 0.467742): 1.042
Nes: N Acetyltransferase Activity (Nom P-Val 0.473684): 1.019
Nes: Structural Constituent Of Cytoskeleton (Nom P-Val 0.482759): 0.9708
Nes: Adenyl Ribonucleotide Binding (Nom P-Val 0.506667): 0.9848
Nes: G Protein Coupled Receptor Activity (Nom P-Val 0.514706): 0.9852
Nes: Protease Inhibitor Activity (Nom P-Val 0.516667): 0.9864
Nes: Transmembrane Receptor Protein Kinase Activity (Nom P-Val 0.516667): 0.965
Nes: N Acyltransferase Activity (Nom P-Val 0.519231): 0.9889
Nes: Enzyme Regulator Activity (Nom P-Val 0.520548): 0.9793
Nes: Hormone Activity (Nom P-Val 0.523077): 0.9749
Nes: General Rna Polymerase Ii Transcription Factor Activity (Nom P-Val 0.530612): 0.9238
Nes: Pyrophosphatase Activity (Nom P-Val 0.54321): 0.9536
Nes: Purine Ribonucleotide Binding (Nom P-Val 0.5625): 0.9577
Nes: Receptor Activity (Nom P-Val 0.5625): 0.9738
Nes: Transferase Activity Transferring Sulfur Containing Groups (Nom P-Val 0.566667): 0.9403
Nes: Magnesium Ion Binding (Nom P-Val 0.567568): 0.9401
Nes: Integrin Binding (Nom P-Val 0.571429): 0.9141
Nes: Substrate Specific Transporter Activity (Nom P-Val 0.573171): 0.929
Nes: Acetyltransferase Activity (Nom P-Val 0.6): 0.9474
Nes: Single Stranded Dna Binding (Nom P-Val 0.605634): 0.9533
Nes: Protein Homodimerization Activity (Nom P-Val 0.621212): 0.8817
Nes: Protein Domain Specific Binding (Nom P-Val 0.628571): 0.9357
Nes: Lipid Transporter Activity (Nom P-Val 0.62963): 0.9194
Nes: Protein Dimerization Activity (Nom P-Val 0.636364): 0.9248
Nes: Ion Transmembrane Transporter Activity (Nom P-Val 0.64): 0.9276
Nes: Transferase Activity Transferring Hexosyl Groups (Nom P-Val 0.642857): 0.9266
Nes: Nucleotide Binding (Nom P-Val 0.643836): 0.9324
Nes: Transferase Activity Transferring Phosphorus Containing Groups (Nom P-Val 0.64557): 0.9499
Nes: Zinc Ion Binding (Nom P-Val 0.647059): 0.896
Nes: Translation Regulator Activity (Nom P-Val 0.661017): 0.8764
Nes: Translation Factor Activity Nucleic Acid Binding (Nom P-Val 0.681159): 0.8454
Nes: Carbohydrate Binding (Nom P-Val 0.688525): 0.8882
Nes: Adenyl Nucleotide Binding (Nom P-Val 0.694118): 0.8847
Nes: Microtubule Binding (Nom P-Val 0.696429): 0.8123
Nes: Substrate Specific Transmembrane Transporter Activity (Nom P-Val 0.697368): 0.9071
Nes: Transcription Cofactor Activity (Nom P-Val 0.7): 0.8775
Nes: Transcription Coactivator Activity (Nom P-Val 0.708333): 0.8777
Nes: Sulfotransferase Activity (Nom P-Val 0.719298): 0.88
Nes: Endopeptidase Activity (Nom P-Val 0.720588): 0.8136
Nes: Metallopeptidase Activity (Nom P-Val 0.733333): 0.8731
Nes: Neurotransmitter Binding (Nom P-Val 0.754717): 0.789
Nes: Neurotransmitter Receptor Activity (Nom P-Val 0.757576): 0.7972
Nes: Lyase Activity (Nom P-Val 0.758065): 0.8646
Nes: Transmembrane Transporter Activity (Nom P-Val 0.759494): 0.8985
Nes: Transcription Repressor Activity (Nom P-Val 0.76): 0.8555
Nes: Nucleoside Triphosphatase Activity (Nom P-Val 0.761905): 0.8734
Nes: Purine Nucleotide Binding (Nom P-Val 0.763158): 0.861
Nes: Hydrolase Activity Acting On Acid Anhydrides (Nom P-Val 0.770115): 0.8688
Nes: Motor Activity (Nom P-Val 0.77193): 0.7716
Nes: Calcium Channel Activity (Nom P-Val 0.781818): 0.7534
Nes: Hydro Lyase Activity (Nom P-Val 0.792453): 0.773
Nes: Calcium Ion Binding (Nom P-Val 0.805556): 0.7913
Nes: Hydrolase Activity Acting On Carbon Nitrogen But Not Peptide Bonds In Linear Amides (Nom P-Val 0.826923): 0.6663
Nes: Transmembrane Receptor Protein Tyrosine Kinase Activity (Nom P-Val 0.828947): 0.7856
Nes: Ion Binding (Nom P-Val 0.833333): 0.813
Nes: Molecular Adaptor Activity (Nom P-Val 0.84507): 0.7682
Nes: Gtp Binding (Nom P-Val 0.848485): 0.769
Nes: Guanyl Nucleotide Exchange Factor Activity (Nom P-Val 0.857143): 0.7708
Nes: Carbon Oxygen Lyase Activity (Nom P-Val 0.86): 0.7402

Reference: patent publication US20120244567A1, “HUMAN EMBRYONIC STEM CELLS FOR HIGH THROUGHOUT DRUG SCREENING” (BUCK INSTITUTE FOR RESEARCH ON AGING, priority 2009, published 2012)
